Source: US5098613A, “Anti-inflammatory agents” (Eli Lilly and Company, priority 1990, dated 1992)
Counter-ions that a name gives are not always drawn. Like-named read-outs stand apart in the source and are kept apart here.

Molecular target: T1, leukotriene B4 specific receptor on the membrane of human neutrophils (Homo sapiens, UniProt Q15722)
T1 construct: incubating neutrophils (1×10^7 cells) with 0.1-0.2 nM ^3 H-LTB4; endogenous in cells; host or cells: human peripheral blood neutrophils (buffy coats of two blood donors)
T1 sequence (Q15722 whole entry): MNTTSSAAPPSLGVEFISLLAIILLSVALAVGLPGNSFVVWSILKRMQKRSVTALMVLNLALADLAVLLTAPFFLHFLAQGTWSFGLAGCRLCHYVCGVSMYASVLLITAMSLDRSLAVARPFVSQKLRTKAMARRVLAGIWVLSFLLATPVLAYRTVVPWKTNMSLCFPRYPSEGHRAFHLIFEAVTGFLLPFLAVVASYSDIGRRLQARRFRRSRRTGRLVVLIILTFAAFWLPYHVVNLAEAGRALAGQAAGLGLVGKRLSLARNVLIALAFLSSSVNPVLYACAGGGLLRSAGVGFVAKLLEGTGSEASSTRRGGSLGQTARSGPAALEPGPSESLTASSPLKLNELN
Assay: Inhibition of Binding of ^3 H-LTB4 to Peripheral Human Neutrophils
Conditions: for inhibition at 10 µM: read-out: LTB4 Binding Inhibition; for inhibition at 1 µM: drug concentration 10^-6 M; for inhibition at 0.1 µM: drug concentration 10^-7 M
Experimental: The effectiveness of compounds to inhibit the binding of leukotriene B4 to a specific receptor on the membrane of human neutrophils was measured by using an adaptation of a radio-ligand binding assay developed by Goldman and Goetzl, J. Immunol., 129, 1600 (1982). Other investigators have developed similar assays (see, e.g., Kreisle, et al., J. Exp. Med., 157, 628 (1983) and Lin, et al., Prostaglandins, 28, 837 (1984)).
Cells used in the assay were isolated by standard techniques of centrifugation on Ficol-Hypaque, dextran 70 sedimentation and hypotonic lysis. The following procedure was used. Freshly-prepared buffy coat layers from two individuals were obtained from a local blood donor center. The cells were mixed and diluted to 484 ml. with phosphate buffered saline containing heparin (10 units/ml) and heat-inactivated calf serum (5%). This was divided into 20 ml. aliquots and the aliquots layered on top of Ficoll-Paque (12 ml.). The material was then centrifuged at 500 g. for 40 minutes at room temperature. The resulting upper layer of platelets and mononuclear cells was discarded. The lower layer containing erythrocytes and neutrophils was retained. Buffer was added (1 ml. per 4 ml. of lower layer) and the suspension mixed. For each milliliter of this mixture, 0.33 ml. of 6% Macrodex was added. After stirring, the cels were allowed to sediment for 1 hour at 37° C. The resulting erythrocyte pellet was discarded and the neutrophil enriched supernatant fluid centrifuged at 500 g. for 10 minutes at 4° C. Erythrocytes still present in this cell pellet were lysed by incubating the cells with 5-8 ml. ice-cold distilled water for 30-45 seconds. Subsequently, the volume was made up to 50 ml. by addition of ice-cold buffer and the cells resuspended. The suspension was then centrifuged at 300 g. for 10 minutes at 4° C. The cells were finally resuspended at a cell density of 2×10^7 cells/ml in the assay buffer. This buffer Consisted of Hanks' balanced salt solution and 0.1% ovalbumin (pH 7.3).
The radio-ligand binding assay was conducted by incubating neutrophils (1×10^7 cells) with 0.1-0.2 nM ^3 H-LTB4 (sp. act. 150-220 Curies/mmol) and test compound (1×10^-5 M and 1×10^-6 M) for 10 minutes at 4° C. The amount of bound ^3 H-LTB4 was then measured and compared with the amount bound in the absence of test compound. The assay was carried out in microcentrifuge tubes by adding first 10 μl test compound dissolved in DMSO, followed by adding 20 μl ^3 H-LTB4 diluted in assay buffer, and finally adding 500 μl of the cell suspension pension. At the end of the 10 minutes incubation, 300 μl of a mixture of dibutyl and dinonyl phthalate (7:2) were added and the tubes centrifuged for 2 minutes in a microcentrifuge. The radioactivity bound to the cell pellet was measured by scintillation spectroscopy. Appropriate corrections for nonspecific bonding of ^3 H-LTB4 were made.

[1] = drug concentration 10^-5 M, 4° C., 10 minutes

SMILES	inhibition at 10 µM [1]	inhibition at 1 µM (4° C., 10 minutes)	inhibition at 0.1 µM (4° C., 10 minutes)	inhibition at 10 µM
C=CCc1cc(C(C)=O)c(O)cc1OCCCCN1CCOCC1 [Example 75, 2-Hydroxy-4-[4-(4-morpholino)butoxy]-5-allylacetophenone hydrochloride]	0%	0%	–	–
CCOC(=O)c1ccc(COc2cc(O)c(C(C)=O)cc2CC)cc1O [Example 147, 4-[(4-Acetyl-2-ethyl-5-hydroxyphenoxy)methyl]-2-hydroxybenzoic acid, ethyl ester]	2%	3%	–	–
CCOC(=O)Cn1nnc(CCCCOc2cc(O)c(C(C)=O)cc2CC)n1 [Example 141, 5-[4-(4-Acetyl-2-ethyl-5-hydroxyphenoxy)-butyl]-2H-tetrazole-2-acetic acid, ethyl ester]	90%	57%	–	–
CCc1cc(C(C)=O)c(O)cc1OCCCCCCSC [Example 81, 2-Hydroxy-4-[6-(methylthio)hexyloxy]-5-ethylacetophenone]	71 to 94%	14 to 59%	–	–
C=CCc1cc(C(C)=O)c(O)cc1OCCCCC [Example 41, 4-Pentyloxy-2-hydroxy-5-allylaceto-phenone]	59%	22%	–	–
CCCc1cc(C(C)=O)c(O)cc1OCCCCC#N [Example 118, 5-(4-Acetyl-5-hydroxy-2-propylphenoxy)-pentanenitrile]	83%	38%	–	–
C=CCCOc1cc(O)c(C(C)=O)cc1CC=C [Example 45, 4-(3-Butenyloxy)-2-hydroxy-5-allylacetophenone]	51%	15%	–	–
C=CCc1cc(C(C)=O)c(O)cc1OCCCCCCC#N [Example 24, 7-(4-Acetyl-5-hydroxy-2-allylphenoxy)-]	94%	59%	–	–
CCc1cc(C(C)=O)c(O)cc1OCCCCc1nnn(CC(=O)O)n1 [Example 143, 5-[4-(4-Acetyl-2ethyl-5-hydroxyphenoxy)-butyl]-2H-tetrazole-2-acetic acid]	69%	27%	–	–
C=CCc1cc(C(C)=O)c(O)cc1OCCCCCC(=O)N(C)C [Example 97, 6-(4-Acetyl-5-hydroxy-2-allylphenoxy)-N,N-dimethylhexanamide]	91%	53%	–	–
CC(=O)c1cc(C(C)=O)c(OCCCCC#N)cc1O [Example 16, 5-(2,4-Diacetyl-5-hydroxy-phenoxy)pentanenitrile]	8%	-7%	–	–
C=CCCCCOc1cc(O)c(C(C)=O)cc1CC=C [Example 46, 4-(5-Hexenyloxy)-2-hydroxy-5-allylacetophenone]	72%	26%	–	–
C=CCc1cc(C(=O)CCCC(=O)O)c(O)cc1OCCCCC#N [Example 106, 5-[4-(4-Cyanobutoxy)-2-hydroxy-5-allylphenyl)-5-oxopentanoic acid]	9%	1%	–	–
C=CCc1cc(C(C)=O)c(O)cc1OCCCCCC(=O)OC [Example 94, 6-(4-Acetyl-5-hydroxy-2-allylphenoxy)hexanoic acid, methyl ester]	106%	64%	–	–
C=CCc1cc(C(C)=O)c(O)cc1OCc1cccc(CC#N)c1 [Example 60, 3-[(4-Acetyl-5-hydroxy-2-allylphenoxy)-methyl]benzeneacetonitrile]	12%	6%	–	–
CCc1cc(C(C)=O)c(O)cc1OCc1cccc(C(F)(F)F)c1 [Example 58, 5-Ethyl-2-hydroxy-4-(3-trifluoromethyl-benzyloxy)acetophenone]	67%	22%	–	–
C=CCc1cc(C(C)=O)c(O)cc1OCCCCCC[S+](C)[O-] (stereo not shown) [Example 79, 2-Hydroxy-4-[6-(methylsulfinyl)hexyloxy]-5-allylacetophenone]	96%	51%	–	–

SMILES	inhibition at 10 µM [1]	inhibition at 1 µM (4° C., 10 minutes)	inhibition at 0.1 µM (4° C., 10 minutes)	inhibition at 10 µM
C=CCc1cc(C(C)=O)c(O)cc1OCCCC#N [Example 26, 4-(4-Acetyl-5-hydroxy-2-allylphenoxy)-butanenitrile]	46%	5%	–	–
CCc1cc(C(C)=O)c(O)cc1OCCCCCC(C)(C)C(=O)N(C)O [Example 149, 7-(4-Acetyl-2-ethyl-5-hydroxyphenoxy)-N-hydorxy-N,2,2-trimethylheptanamide]	97%	65%	6%	–
CCc1cc(C(C)=O)c(O)cc1OCCCCCCC(=O)Nc1nnn[nH]1 [Example 145, 7-(4-Acetyl-2-ethyl-5-hydroxyphenoxy)-N-1H-tetrazol-5-ylheptanamide]	101%	85%	–	–
CCc1cc(C(C)=O)c(O)cc1OCCCCCCC(=O)O [Example 85, 7-(4-Acetyl-2-ethyl-5-hydroxyphenoxy)heptanoio acid]	86%	37%	–	–
C=CCc1cc(C(C)=O)c(O)cc1OC [Example 42, 2-Hydroxy-4-methoxy-5-allylacetophenone]	6%	12%	–	–
C=CCc1cc(C(C)=O)c(O)cc1OCCCCC#N [Example 139, 5-(4-Acetyl-5-hydroxy-2-allylphenoxy)pentanenitrile]	–	53%	–	92%
CCc1cc(C(=O)c2ccc(C(=O)O)cc2)c(O)cc1OCCCCC#N [Example 91, 4[4-(4-Cyanobutoxy)-5-ethyl-2-hydroxybenzoyl]benzoic acid]	26%	20%	–	–
CSCc1cc(C(C)=O)c(O)cc1OCCCCCCC#N [Example 128, 7-[4-Acetyl-5-hydroxy-2-(methylthiomethyl)-phenoxy]heptanenitrile]	97%	64%	–	–
C=CCc1cc(C(C)=O)c(O)cc1OCCCCCC(C)(C)O [Example 103, 2-Hydroxy-4-(6-hydroxy-6-methylheptyloxy)-5-allylacetophenone]	97%	59%	–	–
C=CCc1cc(C(C)=O)c(O)cc1OCC#N [Example 25, (4-Acetyl-5-hydroxy-2-allylphenoxy)-acetonitrile]	19%	2%	–	–
C=CCc1cc(C(C)=O)c(O)cc1OCCCCCC(=O)O [Example 86, 6-(4-Acetyl-2-allyl-5-hydroxyphenoxy)hexanoic acid]	73%	23%	–	–
CCc1cc(C(C)=O)c(O)cc1OCc1ccc(C(=O)O)c(O)c1 [Example 148, 4-[(4-Acetyl-2-ethyl-5-hydroxyphenoxy)methyl]-2-hydroxybenzoic acid]	44%	14%	–	–
C=CCc1cc(C(C)=O)c(O)cc1OCCCCCCCCC#N [Example 23, 9-(4-Aoetyl-5-hydroxy-2-allylphenoxy)-nonanenitrile]	85%	50%	–	–
CCc1cc(C(C)=O)c(O)cc1OCCCCCC(C)(C)C(N)=O [Example 101, 7-(4-Acetyl-2-ethyl-5-hydroxyphenoxy)-2,2-methylheptanamide]	101%	82%	45%	–
CCc1cc(C(C)=O)c(O)cc1OCCCC(C)(C)C(N)=O [Example 135, 5-(4-Acetyl-2-ethyl-5-hydroxyphenoxy)-2,2-dimethylpentamide]	95%	55%	–	–
CCOC(=O)Cn1nnnc1CCCCOc1cc(O)c(C(C)=O)cc1CC [Example 142, 5-[4-(4-acetyl-2-ethyl-5-hydroxyphenoxy)butyl]-1H-tetrazole-1-acetic acid, ethyl ester]	34%	5%	–	–
CC(=O)c1cc(C=O)c(OCCCCC#N)cc1O [Example 18, 5-(4-Acetyl-5-hydroxy-2-formylphenoxy)-pentanenitrile]	5%	3%	–	–
